Tested on: Wnt pathway
Experiment: Wnt pathway Super-top flash (STF) reporter gene assay (primary assay)
Type: cell-based
Settings: HEK293 STF cells co-cultured 1:1 with L Wnt3A cells; 48 h incubation; inhibition of luminescence signaling
Procedure: The primary assay is based on Wnt pathway Super-top flash (STF) reporter gene assay:
HEK293 STF stable clones (HEK293 cells stably transfected with “Super-Top Flash” TCF-luciferase reporter plasmid) were kept in complete culture medium (DMEM with 4 mM L-Gln, 1.5 g/L sodium bicarbonate and 4.5 g/L glucose containing 6 μg/mL Blasticidin and 10% FBS). L Wnt3A cells (CRL-2647, ATCC) were kept in DMEM (Gibico) containing 10% FBS (Hyclone). HEK293 STF and L Wnt3A cells were harvested when 90% confluence and cell suspension was mixed with a fixed ratio of 1:1 (HEK293 STF: L Wnt3A). 100 μL/well of mixed cells suspension was added to the 96-well-plate with final cell concentration of 12,000 cells/well and then cultured for an additional 24 hours before adding compounds.
Compounds were diluted in DMSO in sequence and then diluted with DMEM medium. 20 μL medium containing compound was added to the cells according to the pre-setting dose. Cell plates were incubated at 37° C. for an additional 48 hours.
50 μL luciferase solution (Bright-Glo, Promega) was added to each well […] the 48 h incubation. The plates were incubated at room temperature for 5 min under gentle shaking. Luminescence signaling was measured with a plate reader (PHERAstar FS, BMG). The IC50 (potency) of compounds was calculated based on the inhibition of luminescence signaling.

IC50 [nM] | Compound
3000 | Cc1cc(-c2ccc(CNc3cc(-c4ccc5ccccc5c4)nc(N4CCCC4)n3)cc2)ccn1 [Compound A-141]
3000 | CCNc1nc(NCc2ccc(-c3ccnc(C)c3)cc2)cc(-c2ccc3ccccc3c2)n1 [Compound A-142]
2000 | Cc1cc(-c2ccc(CNc3ncnc(-c4ccc5ccccc5c4)c3C)cc2)ccn1 [Compound A-143]
40 | Cc1cc(-c2ccc(CNc3ncnc(-c4ccc5ccccc5c4)c3C#N)cc2)ccn1 [Compound A-144]
1130 | Cc1cc(-c2ccc(CNc3cc(N4CCc5ccccc5C4=O)ncn3)cc2)ccn1 [Compound A-145]
68 | c1ccc2cc(-c3cc(NCc4ccc(-c5ccncc5)cc4)ncn3)ccc2c1 [Compound A-146]
40 | Cc1cc(-c2ccc(C(C)Nc3cc(-c4ccc5ccccc5c4)ncn3)cc2)ccn1 (centres unmarked) [Compound A-147]
10 | Cc1cc(-c2ccc(CNc3cc(-c4ccc5cnccc5c4)ncn3)cc2)ccn1 [Compound A-148]
603 | Cc1cc(-c2ccc(CNc3cccc(-c4ccc5ccccc5c4)c3)cc2)ccn1 [Compound A-149]
250 | Cc1cc(-c2ccc(CNc3cccc(-c4ccc5ccccc5c4)n3)cc2)ccn1 [Compound A-150]
2000 | Cc1cc(-c2ccc(CNc3ccnc(-c4ccc5ccccc5c4)n3)cc2)ccn1 [Compound A-151]
4.9 | Cc1cc(-c2ccc(CNc3nccc(-c4ccc5ccccc5c4)n3)cc2)ccn1 [Compound A-152]
3000 | Cc1cc(-c2ccc(CNc3cc(-c4ccc5ccccc5c4)nc(N)n3)cc2)ccn1 [Compound A-153]
1.2 | Cc1cc(-c2ccc(CNc3nccc(-c4ccc5ncccc5c4)n3)cc2)ccn1 [Compound A-154]
229 | Cc1cc(-c2ccc(CNc3nccc(N4CCc5ccccc5C4)n3)cc2)ccn1 [Compound A-155]
12 | Cc1cc(-c2ccc(CNc3nccc(N4CCc5ncccc5C4)n3)cc2)ccn1 [Compound A-156]
3000 | Cc1cc(-c2ccc(CNc3ccnc(-c4ccc5ncccc5c4)n3)cc2)ccn1 [Compound A-157]
3000 | Cc1cc(-c2ccc(CNc3ccnc(N4CCc5ncccc5C4)n3)cc2)ccn1 [Compound A-158]
17 | Cc1cc(-c2ccc(CNc3nccc(-c4ccc5ncncc5c4)n3)cc2)ccn1 [Compound A-159]
6.7 | Cc1cc(-c2ccc(CNc3ncnc(-c4ccc5ncccc5c4)n3)cc2)ccn1 [Compound A-160]

IC50 [nM] | Compound
3000 | Cc1cc(-c2ccc(CNc3nc(N4CCc5ncccc5C4)ncc3F)cc2)ccn1 [Compound A-161]
3000 | Cc1cc(-c2ccc(CNc3ccnc(-c4ccc5ccccc5c4)c3)cc2)ccn1 [Compound A-164]
3.6 | Cc1cc(-c2ccc(CNc3cc(-c4ccc5ncccc5c4)ccn3)cc2)ccn1 [Compound A-166]
120 | Cc1cc(-c2ccc(CNc3ncnc(-c4ccc5ccccc5c4)n3)cc2)ccn1 [Compound A-167]
0.85 | Cc1cc(-c2ncc(CNc3nccc(-c4ccc5ncccc5c4)n3)cc2F)ccn1 [Compound A-168]
4.9 | Cc1cc(-c2ccc(CNc3nccc(-c4ccc5ncccc5c4)n3)cn2)ccn1 [Compound A-169]
3.7 | Cc1cc(-c2ncc(CNc3nccc(-c4ccc5ncccc5c4)n3)cc2C)ccn1 [Compound A-170]
0.31 | Cc1cc(-c2ncc(CNc3nccc(-c4ccc5ncccc5c4)n3)cc2C#N)ccn1 [Compound A-171]
1.7 | Cc1cc(-c2ncc(CNc3nccc(-c4ccc5ncccc5c4)n3)cn2)ccn1 [Compound A-172]
106 | c1cnc2ccc(-c3ccnc(NCc4ccc(-n5ccnc5)cc4)n3)cc2c1 [Compound A-173]
2.7 | Cc1cc(-c2cnc(CNc3nccc(-c4ccc5ncccc5c4)n3)cn2)ccn1 [Compound A-174]
0.74 | COc1cc(CNc2nccc(-c3ccc4ncccc4c3)n2)cnc1-c1ccnc(C)c1 [Compound A-175]
18 | Cc1cc(-c2ncc(CNc3nccc(-c4ccc5ncccc5n4)c3O)cc2F)ccn1 [Compound A-176, 2-((3-fluoro-2′-methyl-2,4′-bipyridin-5-yl)methylamino)-4-(1,5-naphthyridin-2-yl)pyridin-3-ol]
100 | N#Cc1ccc2cc(CNc3nccc(-c4ccc5ncccc5c4)n3)cnc2c1 [Compound A-177]
200 | N#Cc1ccc2nc(CNc3nccc(-c4ccc5ncccc5c4)n3)ccc2c1 [Compound A-178]
500 | N#Cc1cnc2cc(CNc3nccc(-c4ccc5ncccc5c4)n3)ccc2c1 [Compound A-179, 7-((4-(quinolin-6-yl)pyrimidin-2-ylamino)methyl)quinoline-3-carbonitrile]
300 | O=S1(=O)CCN(c2ccc(CNc3nccc(-c4ccc5ncccc5c4)n3)cn2)CC1 [Compound A-180]
350 | CS(=O)(=O)CCNc1ccc(CNc2nccc(-c3ccc4ncccc4c3)n2)cn1 [Compound A-181]
0.64 | COc1cc(CNc2nccc(-c3cc4cccnc4cn3)n2)cnc1-c1ccnc(C)c1 [Compound A-182]
2.1 | Cc1cc(-c2ncc(CNc3nccc(-c4cc5cccnc5cn4)n3)cc2C#N)ccn1 [Compound A-183, 5-((4-(1,7-naphthyridin-6-yl)pyrimidin-2-ylamino)methyl)-2′-methyl-2,4′-bipyridine-3-carbonitrile]

IC50 [nM] | Compound
1 | Cc1cc(-c2ncc(CNc3nccc(-c4cc5cccnc5cn4)n3)cc2F)ccn1 [Compound A-184]
4.3 | Cc1cc(-c2ncc(CNc3nnc(-c4ccc5ncccc5c4)s3)cc2C#N)ccn1 [Compound A-185]
0.27 | Cc1cc(-c2ccc(CNc3nsc(-c4ccc5ncccc5c4)n3)cc2)ccn1 [Compound A-186]
51 | Cc1cn(-c2ccc(CNc3nsc(-c4ccc5ncccc5c4)n3)cc2)cn1 [Compound A-187]
4.6 | O=S1(=O)CCN(c2ccc(CNc3nsc(-c4ccc5ncccc5c4)n3)cn2)CC1 [Compound A-188]
3000 | CS(=O)(=O)CCNc1ccc(CNc2nsc(-c3ccc4ncccc4c3)n2)cn1 [Compound A-189]
0.4 | Cc1cc(-c2ccc(CNc3nsc(-c4ccc5ncccc5c4)n3)cn2)ccn1 [Compound A-190]
0.38 | Cc1cc(-c2ncc(CNc3nsc(-c4ccc5ncccc5c4)n3)cc2C)ccn1 [Compound A-191]
0.1 | Cc1cc(-c2ncc(CNc3nsc(-c4ccc5ncccc5c4)n3)cc2F)ccn1 [Compound A-192]
0.07 | COc1cc(CNc2nsc(-c3ccc4ncccc4c3)n2)cnc1-c1ccnc(C)c1 [Compound A-193]
0.09 | Cc1cc(-c2ncc(CNc3nsc(-c4ccc5ncccc5c4)n3)cc2C#N)ccn1 [Compound A-194]
0.84 | Cc1cc(-c2ncc(CNc3nsc(-c4cc5cccnc5cn4)n3)cc2F)ccn1 [Compound A-195]
0.78 | COc1cc(CNc2nsc(-c3cc4cccnc4cn3)n2)cnc1-c1ccnc(C)c1 [Compound A-196, N-((3-methoxy-2′-methyl-2,4′-bipyridin-5-yl)methyl)-5-(1,7-naphthyridin-6-yl)-1,2,4-thiadiazol-3-amine]
0.31 | Cc1cc(-c2ncc(CNc3nsc(-c4cc5cccnc5cn4)n3)cc2C#N)ccn1 [Compound A-197]
0.42 | Cc1cc(-c2ncc(CNc3nsc(N4CCc5ncccc5C4)n3)cc2C#N)ccn1 [Compound A-198, 5-((5-(7,8-dihydro-1,6-naphthyridin-6(5H)-yl)-1,2,4-thiadiazol-3-ylamino)methyl)-2′-methyl-2,4′-bipyridine-3-carbonitrile]
0.17 | N#Cc1ccc2cc(CNc3nsc(-c4ccc5ncccc5c4)n3)cnc2c1 [Compound A-199, 3-((5-(quinolin-6-yl)-1,2,4-thiadiazol-3-ylamino)methyl)quinoline-7-carbonitrile]
25 | N#Cc1ccc(NCCNc2nsc(-c3ccc4ncccc4c3)n2)nc1 [Compound A-200]
0.8 | Cc1cc(-c2ncc(CNc3ncnc(N4CCn5nccc5C4)c3F)cc2C#N)ccn1 [Compound A-201]
0.5 | Cc1cc(-c2ncc(CNc3nccc(N4CCc5ncccc5C4)c3F)cc2F)ccn1 [Compound A-202, 4-(7,8-dihydro-1,6-naphthyridin-6(5H)-yl)-3-fluoro-N-((3-fluoro-2′-methyl-2,4′-bipyridin-5-yl)methyl)pyridin-2-amine]

Source: patent US10450300B2, “Wnt signaling pathway inhibitors and therapeutic applications thereof” (Suzhou Yunxuan Yiyao Keji Youxian Gongsi, priority 2015, dated 2019)
